Assay results taken from patent publication US20230210867A1, “TREATMENT OF ADJUSTMENT DISORDERS” (VISTAGEN THERAPEUTICS, INC., priority 2020, published 2023).

Experiments:
[1] = test system: Adjustment Disorder with Anxiety (AjDA) symptoms in adults; test: Phase 2A clinical trial of PH94B neuroactive nasal spray in Adjustment Disorder with Anxiety (AjDA); format: in vivo, human; conditions: adult subjects with AjDA, compared to placebo
Excerpt: A clinical trial is designed and conducted to evaluate the efficacy, safety and tolerability of daily administration of PH94B neuroactive nasal spray (Example 1) as a treatment of Adjustment Disorder with Anxiety (AjDA) symptoms in adults, associated with identifiable stressors related to the COVID-19 pandemic. Subject are confirmed with current diagnoses of this condition as defined in the Diagnostic and Statistical Manual of Mental Disorders, 5th Edition (DSM-5).
The PH94B study drug is delivered intranasally with the nozzle of the applicator positioned in the nasal vestibule and directed toward the midline (medial part or nasal septum). In order to administer study medication, the actuator (pusher) should be depressed.
Prior to the use of a new study medication bottle, the subject is instructed to shake the bottle five times and to prime the bottle by depressing the actuator five times. […]
1. Individual subject improvement as assessed by the Sheehan Disability Scale (SDS) at the end of week 4 of treatment with PH94B compared to placebo.
2. Individual subject improvement as assessed by the Clinical Global Impression-Improvement rating (CGI-I). […]
3. Individual subject improvement as assessed by the subject's self-assessment of improvement (PGI-C) at the end of week 4 of treatment with PH94B compared to placebo. […]

[2] = test system: symptoms of social anxiety disorder (SAD); conditions: earlier clinical studies; cited from earlier work
[3] = all clinical studies to date; cited from earlier work

C[C@@]12C=CC[C@H]1[C@@H]1CCC3=C[C@@H](O)CC[C@]3(C)[C@H]1CC2 [PH94B, [3β]-androsta-4,16-dien-3-ol]
anxiety levels as measured by the Hamilton Anxiety Scale (HAM-A) ([1]; 3.2 μg intranasal four times per day, four weeks): statistically significant reduction in anxiety levels
secondary endpoints (SDS, CGI-I, PGI-C, ADNM) ([1]; end of week 4 of treatment): statistically significant improvement
efficacy in treating symptoms of social anxiety disorder (SAD) [2]: significant efficacy
safety in clinical studies [3]: safe
